According to patent publication EP4745135A1 (Gluetacs Therapeutics (Shanghai) Co., Ltd., priority 2023, dated 2025):

Key:
IKZF3 = target: T1, IKZF3 (Homo sapiens, UniProt Q96SW2+Q9UKT9); experiment: Western blot, degradation of substrate protein in hPBMCs; assay type: cell-based
T1 construct: effects of the compounds of the present disclosure on the expression of target proteins in cells; endogenous in cells; host or cells: human PBMCs (Milecell Biotechnologies)
Method: (§1) Conventional Western blot assay was performed to evaluate the effects of the compounds of the present disclosure on the expression of target proteins in cells. • (1) Cell Seeding and Protein Harvesting: Human peripheral blood mononuclear cells (hPBMCs) at a density of 1×10^6 cells/mL were thawed according to the PBMC Recovery Protocol (Milecell Biotechnologies Inc, Shanghai). […] After 24 hours of compounds treatment, cells were harvested and lysed in RIPA protein lysate containing protease inhibitors on ice for 30 min, followed by centrifugation. The supernatant was aspirated as the extracted total cell protein. The protein concentration of the supernatant was determined using the conventional BCA (Bicinchoninic Acid) assay. • (2) To the collected supernatant, 5X SDS sample loading buffer was added, followed by denaturation at 95°C for 5 minutes. The denatured samples were then separated by SDS-PAGE electrophoresis on a polyacrylamide gel, transferred onto a nitrocellulose membrane (0.45 µm NC membrane), blocked with blocking buffer at room temperature for 1 hour, and subjected to antibody incubation and development procedures according to the antibody manufacturer's instructions (Cell Signaling Technology Company).
(§2) Half-Maximal Degradation Concentration value (the drug concentration required for degrading proteins by 50%, abbreviated as DC50) reads method: comparing the grayscale values of Western blot bands from drug-treated samples with those from blank DMSO-treated controls, and identifying the drug concentration range at which the grayscale value is half that of the DMSO-treated control bands.
(§3) DC50 values can be calculated using ImageJ software to measure grayscale values of Western blot bands from drug-treated samples. The concentration-response curve is fitted to estimate the drug concentration corresponding to half the grayscale value.
(§4) Target protein remaining (%) refers to the percentage of target protein remaining in cells after treatment with protein degrader compounds.
(§5) Calculation method for target protein remaining (%): Use ImageJ software to measure grayscale values of Western blot bands from drug (protein degrader)-treated samples. The grayscale value of drug-treated bands is divided by that of internal control protein bands, and the resulting quotient is normalized to obtain the relative percentage of remaining target protein after protein degrader treatment.
(§6) Target protein degradation rate (%) = 1−target protein remaining (%). [formula]

IKZF2 = target: T2, IKZF2 (Homo sapiens, UniProt Q96SW2+Q9UKS7); experiment: as above; assay type: cell-based
T2 construct: effects of the compounds of the present disclosure on the expression of target proteins in cells; endogenous in cells; host or cells: human PBMCs (Milecell Biotechnologies)
T2 sequence (Q9UKS7 whole entry): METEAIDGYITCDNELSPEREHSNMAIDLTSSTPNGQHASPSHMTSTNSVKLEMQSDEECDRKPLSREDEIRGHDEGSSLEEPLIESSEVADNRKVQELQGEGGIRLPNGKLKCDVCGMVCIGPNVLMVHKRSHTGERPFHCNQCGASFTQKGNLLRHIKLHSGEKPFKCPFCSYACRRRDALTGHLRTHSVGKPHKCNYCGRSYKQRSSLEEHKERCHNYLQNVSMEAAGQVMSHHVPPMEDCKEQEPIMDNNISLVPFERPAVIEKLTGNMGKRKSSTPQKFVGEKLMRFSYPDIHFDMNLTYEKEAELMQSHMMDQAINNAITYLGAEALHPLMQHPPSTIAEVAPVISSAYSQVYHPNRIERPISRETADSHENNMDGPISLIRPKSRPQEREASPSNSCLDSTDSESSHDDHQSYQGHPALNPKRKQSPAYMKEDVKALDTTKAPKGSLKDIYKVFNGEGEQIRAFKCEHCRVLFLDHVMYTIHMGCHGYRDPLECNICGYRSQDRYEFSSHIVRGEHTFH
T2 sequence (Q96SW2 whole entry): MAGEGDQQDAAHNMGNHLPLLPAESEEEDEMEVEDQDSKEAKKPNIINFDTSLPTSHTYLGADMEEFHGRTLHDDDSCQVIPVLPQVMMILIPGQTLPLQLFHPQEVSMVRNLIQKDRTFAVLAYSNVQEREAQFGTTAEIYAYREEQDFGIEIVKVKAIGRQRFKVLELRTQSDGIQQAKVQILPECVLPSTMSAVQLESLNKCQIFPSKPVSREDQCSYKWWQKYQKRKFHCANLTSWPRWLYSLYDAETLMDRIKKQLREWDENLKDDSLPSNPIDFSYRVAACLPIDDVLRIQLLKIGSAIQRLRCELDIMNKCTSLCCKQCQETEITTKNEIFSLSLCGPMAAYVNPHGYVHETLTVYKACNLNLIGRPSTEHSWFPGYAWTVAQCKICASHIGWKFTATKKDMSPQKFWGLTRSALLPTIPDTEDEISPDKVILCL
T2 sequence (Q16531 whole entry partner): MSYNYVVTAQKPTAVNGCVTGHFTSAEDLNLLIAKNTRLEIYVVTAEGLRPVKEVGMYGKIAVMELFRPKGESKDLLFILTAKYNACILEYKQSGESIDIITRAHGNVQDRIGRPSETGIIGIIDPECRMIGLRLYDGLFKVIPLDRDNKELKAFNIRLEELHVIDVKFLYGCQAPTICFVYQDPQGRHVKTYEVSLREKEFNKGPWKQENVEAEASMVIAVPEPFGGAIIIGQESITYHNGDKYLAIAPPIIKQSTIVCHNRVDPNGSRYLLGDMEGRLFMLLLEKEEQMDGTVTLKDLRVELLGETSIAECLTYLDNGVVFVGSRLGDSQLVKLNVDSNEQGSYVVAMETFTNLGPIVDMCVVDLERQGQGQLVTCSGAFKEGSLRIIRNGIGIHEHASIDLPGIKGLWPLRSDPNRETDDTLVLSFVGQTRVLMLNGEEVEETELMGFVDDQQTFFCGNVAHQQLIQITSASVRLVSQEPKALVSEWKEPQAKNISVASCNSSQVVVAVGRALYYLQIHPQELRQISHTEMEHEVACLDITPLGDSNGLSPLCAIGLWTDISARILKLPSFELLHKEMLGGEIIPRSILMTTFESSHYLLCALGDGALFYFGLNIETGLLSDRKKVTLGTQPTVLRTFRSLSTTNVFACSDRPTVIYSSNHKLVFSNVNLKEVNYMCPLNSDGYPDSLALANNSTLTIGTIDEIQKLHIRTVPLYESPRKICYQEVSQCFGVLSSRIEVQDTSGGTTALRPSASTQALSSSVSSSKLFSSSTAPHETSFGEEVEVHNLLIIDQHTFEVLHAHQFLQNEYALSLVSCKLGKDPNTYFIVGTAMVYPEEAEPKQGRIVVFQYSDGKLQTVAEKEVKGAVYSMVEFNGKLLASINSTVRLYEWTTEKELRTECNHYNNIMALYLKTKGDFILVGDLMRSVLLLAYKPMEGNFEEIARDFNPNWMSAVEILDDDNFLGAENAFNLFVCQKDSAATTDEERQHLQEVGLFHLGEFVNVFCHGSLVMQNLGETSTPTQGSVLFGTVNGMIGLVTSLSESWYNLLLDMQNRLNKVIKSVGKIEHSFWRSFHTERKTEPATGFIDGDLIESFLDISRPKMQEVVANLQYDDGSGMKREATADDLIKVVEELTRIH
Method: as §1, §2, §3, §4, §5, §6

IKZF1 = target: T3, IKZF1 (Homo sapiens, UniProt Q13422+Q96SW2); experiment: as above; assay type: cell-based
T3 construct: effects of the compounds of the present disclosure on the expression of target proteins in cells; endogenous in cells; host or cells: human PBMCs (Milecell Biotechnologies)
T3 sequence (Q13422 whole entry): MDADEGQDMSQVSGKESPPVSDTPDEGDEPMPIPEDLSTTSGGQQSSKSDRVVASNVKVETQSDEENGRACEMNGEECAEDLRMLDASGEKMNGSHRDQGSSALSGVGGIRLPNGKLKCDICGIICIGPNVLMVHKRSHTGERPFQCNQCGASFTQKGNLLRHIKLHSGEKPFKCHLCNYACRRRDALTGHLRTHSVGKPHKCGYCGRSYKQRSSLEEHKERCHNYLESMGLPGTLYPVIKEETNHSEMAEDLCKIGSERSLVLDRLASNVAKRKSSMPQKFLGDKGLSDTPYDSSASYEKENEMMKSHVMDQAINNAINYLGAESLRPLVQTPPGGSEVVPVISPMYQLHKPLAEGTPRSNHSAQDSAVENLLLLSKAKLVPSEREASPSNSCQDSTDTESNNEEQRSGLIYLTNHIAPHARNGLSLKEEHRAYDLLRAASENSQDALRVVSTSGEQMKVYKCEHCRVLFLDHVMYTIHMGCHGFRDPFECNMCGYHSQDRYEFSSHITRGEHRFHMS
T3 sequence (Q96SW2 whole entry): as the sequence (Q96SW2 whole entry) above
T3 sequence (Q16531 whole entry partner): as the sequence (Q16531 whole entry partner) above
Method: as §1, §2, §3, §4, §5, §6

CK1α = target: T4, CK1α (Homo sapiens, UniProt P48729+Q96SW2); experiment: as above; assay type: cell-based
T4 construct: effects of the compounds of the present disclosure on the expression of target proteins in cells; endogenous in cells; host or cells: human PBMCs (Milecell Biotechnologies)
T4 sequence (P48729 whole entry): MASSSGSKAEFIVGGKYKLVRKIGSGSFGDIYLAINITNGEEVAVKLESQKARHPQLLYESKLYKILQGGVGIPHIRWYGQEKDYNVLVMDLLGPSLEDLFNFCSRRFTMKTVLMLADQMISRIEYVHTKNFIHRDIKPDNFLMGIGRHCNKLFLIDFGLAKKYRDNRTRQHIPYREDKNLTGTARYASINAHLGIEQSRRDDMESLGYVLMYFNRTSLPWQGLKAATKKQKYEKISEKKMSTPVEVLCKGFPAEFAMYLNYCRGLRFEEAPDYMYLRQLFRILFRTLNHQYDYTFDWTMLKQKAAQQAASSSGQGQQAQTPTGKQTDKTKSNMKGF
T4 sequence (Q96SW2 whole entry): as the sequence (Q96SW2 whole entry) above
T4 sequence (Q16531 whole entry partner): as the sequence (Q16531 whole entry partner) above
Method: as §1, §2, §3, §4, §5, §6

WEE1 = target: T5, WEE1 (Homo sapiens, UniProt P30291+Q96SW2); experiment: as above; assay type: cell-based
T5 construct: effects of the compounds of the present disclosure on the expression of target proteins in cells; endogenous in cells; host or cells: human PBMCs (Milecell Biotechnologies)
T5 sequence (P30291 whole entry): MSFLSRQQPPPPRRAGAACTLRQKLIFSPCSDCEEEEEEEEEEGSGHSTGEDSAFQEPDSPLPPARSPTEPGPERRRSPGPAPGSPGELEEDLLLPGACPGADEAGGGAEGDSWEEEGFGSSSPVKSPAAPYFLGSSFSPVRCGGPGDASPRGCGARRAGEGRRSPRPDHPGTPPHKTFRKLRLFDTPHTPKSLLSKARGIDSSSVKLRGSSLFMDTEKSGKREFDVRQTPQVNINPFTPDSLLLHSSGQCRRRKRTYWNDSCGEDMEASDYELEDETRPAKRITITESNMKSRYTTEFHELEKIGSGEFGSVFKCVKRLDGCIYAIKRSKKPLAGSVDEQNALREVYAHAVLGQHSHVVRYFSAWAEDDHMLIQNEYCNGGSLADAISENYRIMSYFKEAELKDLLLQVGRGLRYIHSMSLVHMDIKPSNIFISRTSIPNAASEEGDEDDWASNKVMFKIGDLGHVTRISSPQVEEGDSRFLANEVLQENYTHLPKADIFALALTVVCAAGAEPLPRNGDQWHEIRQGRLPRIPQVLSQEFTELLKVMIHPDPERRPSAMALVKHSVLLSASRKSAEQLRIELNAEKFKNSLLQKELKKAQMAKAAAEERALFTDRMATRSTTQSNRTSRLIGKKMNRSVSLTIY
T5 sequence (Q96SW2 whole entry): as the sequence (Q96SW2 whole entry) above
T5 sequence (Q16531 whole entry partner): as the sequence (Q16531 whole entry partner) above
Method: as §1, §2, §3, §4, §5, §6

[1] = target: T6, human Cereblon WT GST-tagged protein (Homo sapiens, UniProt Q96SW2); experiment: CRBN-binding affinity, HTRF (CEREBLON BINDING kit); conditions: for inhibition at 0.5 µM: read-out: Inhibition Rate at 0.5 µM (%); for inhibition at 2 µM: read-out: Inhibition Rate at 2 µM (%)
T6 construct: purchased CISBIO 64BDCRBNPEH
T6 sequence (Q96SW2 whole entry): as the sequence (Q96SW2 whole entry) above

GSPT1 = experiment: Western blot, degradation of substrate protein in hPBMCs; assay type: cell-based, Human
Method: as §1, §2, §3, §4, §5, §6

[2] = Western blot, 24 hours of compound treatment, compounds tested at 50 nM and 500 nM (concentration for the table not stated)
[3] = 24 hours treatment, compounds at 50 nM and 500 nM (concentration behind the class not stated)

T1 sequence (Q9UKT9 whole entry): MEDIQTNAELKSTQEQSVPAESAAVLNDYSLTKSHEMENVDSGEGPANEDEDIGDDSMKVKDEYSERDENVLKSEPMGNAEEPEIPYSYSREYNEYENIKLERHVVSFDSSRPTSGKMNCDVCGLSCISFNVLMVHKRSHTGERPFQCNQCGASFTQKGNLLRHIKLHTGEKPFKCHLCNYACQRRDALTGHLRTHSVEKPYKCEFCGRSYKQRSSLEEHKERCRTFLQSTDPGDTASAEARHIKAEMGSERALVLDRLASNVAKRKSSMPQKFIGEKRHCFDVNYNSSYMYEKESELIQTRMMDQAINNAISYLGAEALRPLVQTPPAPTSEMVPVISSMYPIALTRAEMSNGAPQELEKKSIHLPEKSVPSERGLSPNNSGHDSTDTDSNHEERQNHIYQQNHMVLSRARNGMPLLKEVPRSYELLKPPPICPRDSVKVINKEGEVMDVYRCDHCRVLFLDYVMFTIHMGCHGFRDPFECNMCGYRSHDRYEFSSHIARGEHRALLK
T1 sequence (Q96SW2 whole entry): as the sequence (Q96SW2 whole entry) above
T1 sequence (Q16531 whole entry partner): as the sequence (Q16531 whole entry partner) above

SMILES	IKZF3 substrate protein remaining % (IKZF3; [2])	IKZF2 substrate protein remaining % (IKZF2; [2])	IKZF 1 substrate protein remaining % (IKZF1; [2])	CK1α substrate protein remaining % (CK1α; [2])	Wee1 substrate protein remaining % (WEE1; [2])	inhibition at 0.5 µM [1]	inhibition at 2 µM [1]	GSPT1 substrate protein remaining % (GSPT1; [2])	IKZF3 substrate protein remaining % (IKZF3; [3])	IKZF2 substrate protein remaining % (IKZF2; [3])	IKZF 1 substrate protein remaining % (IKZF1; [3])	CK1α substrate protein remaining % (CK1α; [3])	Wee1 substrate protein remaining % (WEE1; [3])	GSPT1 substrate protein remaining % (GSPT1; [3])	IC50 ([1]; CRBN binding, HTRF, 3 hours at room temperature, read-out: HTRF IC50)
O=C1CCC(N2Cc3c(CN4CCN(c5cc(Cl)nnc5Cl)CC4)cccc3C2=S)C(=O)N1 (stereo not shown) [GT-08807, 3-(4-((4-(3,6-dichloropyridazin-4-yl)piperazin-1-yl)methyl)-1-thioxoisoindolin-2-yl)piperidine-2,6-dione]	B (80%< substrate protein remaining %≤ 100%)	B (80%< substrate protein remaining %≤ 100%)	B (80%< substrate protein remaining %≤ 100%)	B (80%< substrate protein remaining %≤ 100%)	A (0% ≤ substrate protein remaining % ≤ 80%)	60 to 80%	80 to 100%	B (80%< substrate protein remaining %≤ 100%)	–	–	–	–	–	–	–
O=C1CCC(N2Cc3c(CN4CCC(c5ccoc5)CC4)cccc3C2=S)C(=O)N1 (stereo not shown) [GT-08317, 3-(4-((4-(furan-3-yl)piperidin-1-yl)methyl)-1-thioxoisoindolin-2-yl)piperidine-2,6-dione]	–	–	–	–	–	40 to 53%	60 to 80%	–	A (0% ≤ substrate protein remaining % ≤ 80%)	A (0% ≤ substrate protein remaining % ≤ 80%)	B (80%< substrate protein remaining %≤ 100%)	B (80%< substrate protein remaining %≤ 100%)	A (0% ≤ substrate protein remaining % ≤ 80%)	B (80%< substrate protein remaining %≤ 100%)	–
O=C1CCC(N2Cc3c(CN4CCN(c5ccc(Cl)c(Cl)c5)CC4)cccc3C2=S)C(=O)N1 (stereo not shown) [GT-08502, 3-(4-((4-(3,4-dichlorophenyl)piperazin-1-yl)methyl)-1-thioxoisoindolin-2-yl)piperidine-2,6-dione]	B (80%< substrate protein remaining %≤ 100%)	A (0% ≤ substrate protein remaining % ≤ 80%)	B (80%< substrate protein remaining %≤ 100%)	B (80%< substrate protein remaining %≤ 100%)	A (0% ≤ substrate protein remaining % ≤ 80%)	40 to 53%	60 to 80%	A (0% ≤ substrate protein remaining % ≤ 80%)	–	–	–	–	–	–	–
C[C@@H]1CN(C(c2ccccc2)c2ccccc2)CCN1Cc1cccc2c1CN(C1CCC(=O)NC1=O)C2=S (stereo partly drawn) [GT-08232, 3-(4-(((R)-4-benzhydryl-2-methylpiperazin-1-yl)methyl)-1-thioxoisoindolin-2-yl)piperidine-2,6-dione]	B (80%< substrate protein remaining %≤ 100%)	A (0% ≤ substrate protein remaining % ≤ 80%)	B (80%< substrate protein remaining %≤ 100%)	B (80%< substrate protein remaining %≤ 100%)	A (0% ≤ substrate protein remaining % ≤ 80%)	40 to 53%	80 to 100%	A (0% ≤ substrate protein remaining % ≤ 80%)	–	–	–	–	–	–	–
O=C1CCC(N2Cc3cc(CN4CCN(c5nccc(Cl)c5F)CC4)ccc3C2=S)C(=O)N1 (stereo not shown) [GT-09244, 3-(5-((4-(4-chloro-3-fluoropyridin-2-yl)piperazin-1-yl)methyl)-1-thioxoisoindolin-2-yl)piperidine-2,6-dione]	–	–	–	–	–	60 to 80%	80 to 100%	–	B (80%< substrate protein remaining %≤ 100%)	B (80%< substrate protein remaining %≤ 100%)	B (80%< substrate protein remaining %≤ 100%)	B (80%< substrate protein remaining %≤ 100%)	B (80%< substrate protein remaining %≤ 100%)	A (0% ≤ substrate protein remaining % ≤ 80%)	–
O=C1CCC(N2Cc3c(CN4CCN(c5c[nH]c6ncccc56)CC4)cccc3C2=S)C(=O)N1 (stereo not shown) [GT-08841, 3-(4-((4-(1H-pyrrolo[2,3-b]pyridin-3-yl)piperazin-1-yl)methyl)-1-thioxoisoindolin-2-yl)piperidine-2,6-dione]	B (80%< substrate protein remaining %≤ 100%)	B (80%< substrate protein remaining %≤ 100%)	B (80%< substrate protein remaining %≤ 100%)	B (80%< substrate protein remaining %≤ 100%)	A (0% ≤ substrate protein remaining % ≤ 80%)	60 to 80%	80 to 100%	A (0% ≤ substrate protein remaining % ≤ 80%)	–	–	–	–	–	–	–
O=C1CCC(N2Cc3c(CN4CCN(c5nccc(I)c5F)CC4)cccc3C2=S)C(=O)N1 (stereo not shown) [GT-08704, 3-(4-((4-(3-fluoro-4-iodopyridin-2-yl)piperazin-1-yl)methyl)-1-thioxoisoindolin-2-yl)piperidine-2,6-dione]	A (0% ≤ substrate protein remaining % ≤ 80%)	A (0% ≤ substrate protein remaining % ≤ 80%)	B (80%< substrate protein remaining %≤ 100%)	B (80%< substrate protein remaining %≤ 100%)	A (0% ≤ substrate protein remaining % ≤ 80%)	40 to 53%	80 to 100%	B (80%< substrate protein remaining %≤ 100%)	–	–	–	–	–	–	–
O=C1CCC(N2Cc3cc(CN4CCN(c5ccc(C(F)(F)F)cn5)CC4)ccc3C2=S)C(=O)N1 (stereo not shown) [GT-09225, 3-(1-thioxo-5-((4-(5-(trifluoromethyl)pyridin-2-yl)piperazin-1-yl)methyl)isoindolin-2-yl)piperidine-2,6-dione]	A (0% ≤ substrate protein remaining % ≤ 80%)	B (80%< substrate protein remaining %≤ 100%)	B (80%< substrate protein remaining %≤ 100%)	A (0% ≤ substrate protein remaining % ≤ 80%)	B (80%< substrate protein remaining %≤ 100%)	60 to 80%	80 to 100%	A (0% ≤ substrate protein remaining % ≤ 80%)	–	–	–	–	–	–	–
O=C1CCC(N2Cc3c(CN4CCN(c5cnccn5)CC4)cccc3C2=S)C(=O)N1 (stereo not shown) [GT-08813, 3-(4-((4-(pyrazin-2-yl)piperazin-1-yl)methyl)-1-thioxoisoindolin-2-yl)piperidine-2,6-dione]	B (80%< substrate protein remaining %≤ 100%)	B (80%< substrate protein remaining %≤ 100%)	B (80%< substrate protein remaining %≤ 100%)	B (80%< substrate protein remaining %≤ 100%)	A (0% ≤ substrate protein remaining % ≤ 80%)	60 to 80%	80 to 100%	B (80%< substrate protein remaining %≤ 100%)	–	–	–	–	–	–	–
Cc1ccsc1C1=CCN(Cc2ccc3c(c2)C(=S)N(C2CCC(=O)NC2=O)C3)CC1 (stereo not shown) [GT-05032, 3-(6-((4-(3-methylthiophen-2-yl)-3,6-dihydropyridin-1(2H)-yl)methyl)-1-thioxoisoindolin-2-yl)piperidine-2,6-dione]	–	–	–	–	–	–	–	–	A (0% ≤ substrate protein remaining % ≤ 80%)	B (80%< substrate protein remaining %≤ 100%)	B (80%< substrate protein remaining %≤ 100%)	B (80%< substrate protein remaining %≤ 100%)	B (80%< substrate protein remaining %≤ 100%)	A (0% ≤ substrate protein remaining % ≤ 80%)	100 to 500 nM
